# The METLIN SMRT retention time set (Domingo-Almenara et al. 2019)
# Experiment: gradient 5% acetonitrile 3 min, to 50% in 2 min, to 85% in 15 min, held 3 min, 100 µL/min
# Conditions: column: Zorbax Extend-C18 2.1 x 50 mm; eluents: water / acetonitrile, 0.1% formic acid
# Procedure, shortened: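 The system's dead and dwell volumes were 40 μL and 900 μL, with a Zorbax Extend-C18 column (2.1 × 50 mm, 1.8 μm) run at 100 μL/min in water and acetonitrile containing 0.1% formic acid each. Pure standards were analyzed in mixtures of ~100 molecules by HPLC–quadrupole time-of-flight mass spectrometry in positive and negative ionization mode. Retention time was assigned from computationally picked, manually inspected adduct peaks.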
row,SMILES,RP-LC retention time [s]
1,COc1cccc(-c2nnc(Cc3nc(-c4cccc(C)c4)no3)o2)c1,1050
2,O=C(Nc1cccc(-c2noc(C3CCC3)n2)c1)c1cccs1,1060
3,CCCn1cc(C(=O)NCCC(C)C)c(S(=O)(=O)N2CCN(c3ccccc3OCC)CC2)n1,1240
4,Cc1ccc(-c2nnc(-c3ccccc3)o2)cc1S(=O)(=O)N1CCCCC1,1100
5,CCOc1ccc(-c2nc(C3CC(=O)N(c4ccc(CC)cc4)C3)no2)cc1OCC (stereo not given),1180
6,Cc1ccc2c(C)nc(NC3=NCN(Cc4ccccc4)CN3)nc2c1,772
7,O=C(O)c1cc2cc(Cc3cccnc3)ccc2o1,592
8,COC(=O)c1c(C)[nH]c(C(=O)N2CCC(CC(=O)NCCCc3ccccc3)CC2)c1C,867
9,Cc1cc(C)cc(NC(=O)C2CCCN(S(=O)(=O)c3cc(-c4noc(C)n4)cs3)C2)c1 (stereo not given),1060
10,CCC(CC)C(=O)N1CCCN(C2=NS(=O)(=O)C(c3ccc(F)cc3)=C2C)CC1,811
11,CCc1ccc(-c2noc(Cn3c(=O)n(-c4ccc(C)cc4)c(=O)c4sccc43)n2)cc1,1160
12,CCOC(=O)C1=C(C)NC(C)=C(C(=O)OCC)C1c1c(F)c(F)c(F)c(F)c1F,1240
13,O=C(NCCC1CCN(S(=O)(=O)c2ccccc2)CC1)Nc1ccc(F)cc1,883
14,O=C(C1CC(=O)N(C2CCCCCC2)C1)N1CCCN(c2ccc(=O)n(-c3ccccc3)n2)CC1 (stereo not given),740
15,COc1ccc(-c2csc(Nc3ccc(C)cc3)n2)cc1,1190
16,CC(C)c1c(C2CCN(C(=O)c3ccoc3)CC2)noc1N,674
17,Cc1ccc(CN2CCC(CNC(=O)c3cc(=O)n(C)c4c3c(=O)n(C)c(=O)n4C)CC2)cc1,625
18,COc1cc(OC)c(NC(=O)Cn2c(=O)n(-c3ccccc3)c(=O)c3c2cc(C)n3C)cc1Cl,861
19,Cc1cc(NC(=O)CSc2ccc(NC(=O)c3cccc(F)c3)nn2)no1,750
20,CCOc1ccc(C(O)Cn2ccn3nc(-c4ccccc4C)cc3c2=O)cc1 (stereo not given),985
21,O=C(CC1COc2ccccc2NC1=O)Nc1ccc2c(c1)OCCO2 (stereo not given),688
22,Nc1nc2ccc(Cl)cc2c2nc(-c3ccco3)nn12,755
23,O=C(Cn1cnc2c(sc3nc(-c4ccccc4)ccc32)c1=O)Nc1ccc(F)c(Cl)c1,1110

row,SMILES,RP-LC retention time [s]
1,O=C([C@H]1C[C@@H](F)CN1S(=O)(=O)c1cccc(C(F)(F)F)c1)N1CCOCC1,769
2,O=C1CC(Nc2ccc(N3CCCCC3)cc2)C(=O)N1c1ccccc1F (stereo not given),571
3,Cc1nc(-c2ccncc2)nc2c1CCC(=O)N2C1CCCC1,773
4,CC(Oc1ccccc1)C(=O)N1CC(c2nc(-c3ccsc3)nn2C)C1 (stereo not given),766
5,Cc1ccc(NC(=O)Cn2c(C)nc3c(sc4nc(-c5ccccc5)ccc43)c2=O)c(Cl)c1,1140
6,CCn1cc(CN2CCC(C(=O)NCCCc3ccccc3)CC2)c2cc(OC)ccc21,765
7,CCc1ccc(NC(=O)N2CCCC2c2nc(-c3ccccc3OC)no2)cc1 (stereo not given),976
8,COc1ccc2c(c1)C1(CCN(C(=O)NCc3ccc(F)cc3)C1)C(=O)N2 (stereo not given),697
9,Cc1ccn2c(NC(=O)c3ccc(Br)cc3)c(-c3ccccc3)nc2c1,709
10,CCn1ccc2c(cc(C(=O)Nc3ccc(Br)cc3)n2C)c1=O,844
11,CCOc1ccccc1C(=O)Nc1cccn2c(C)nnc12,790
12,CN1C(=O)C2CCCCN2c2ccc(C(=O)NCCc3c[nH]c4ccc(Cl)cc34)cc21 (stereo not given),921
13,COC(=O)N1CCc2ccccc2C1C(=O)NCc1ccco1 (stereo not given),715
14,CC(NC(=O)c1ccc2c(c1)nc1n2CCN(C2CCCCC2)C1=O)c1ccccc1 (stereo not given),836
15,Cc1ccc(CN2C(=O)CN(S(C)(=O)=O)CC2(C)C(=O)NCc2ccccc2)cc1 (stereo not given),851
16,CC(CCc1ccccc1)NC(C)C(O)c1ccc(O)cc1 (stereo not given),712
17,Cc1cc(N2CCN(C(=O)c3nccc4ccccc34)CC2)nc2nncn12,597
18,Cc1ccc(S(=O)(=O)N2CCC(c3nc(C(=O)N4CCCC4)c(C)o3)CC2)cc1C,747
19,CCOC(=O)N1CCN(Cc2c(NC(=O)c3ccccc3)sc(C)c2C)CC1,630
20,Cc1ccc2cc(CCC(=O)N3CCN(C(=O)c4ccco4)CC3)c(=O)[nH]c2c1,655
21,Cc1ccnc(N2CCC(C(=O)NC(C)c3ccc4c(c3)OCCO4)CC2)n1 (stereo not given),672
22,Cn1c(=O)n(C)c2cc(CNCCC3=CCCCC3)ccc21,600
